Assay: mn = molality of the nth substance listed, in mol/kg
Conditions: 101 kPa, Liquid; for mass density: Pycnometric method; for viscosity: Capillary tube (Ostwald / Ubbelohde) method; for speed of sound: Linear variable-path acoustic interferometer

O=[N+]([O-])[O-].O=[N+]([O-])[O-].[Mg+2] [magnesium nitrate] + O
Conditions	mass density [kg/m3]	speed of sound [m/s]	viscosity [mPa·s]
306.45 K, m1 = 0.0145	995.89	–	–
306.5 K, m1 = 0.896	1083.6	–	–
306.5 K, m1 = 3.096	1266.4	–	–
306.65 K, m1 = 0.5931	1054	–	–
306.65 K, m1 = 3.501	1294.4	–	–
306.7 K, m1 = 3.118	1267.2	–	–
306.7 K, m1 = 3.757	1310.9	–	–
306.7 K, m1 = 5.134	1397	–	–
306.75 K, m1 = 4.728	1373.4	–	–
306.8 K, m1 = 3.17	1276	–	–
307.05 K, m1 = 0.6173	1056.6	–	–
307.05 K, m1 = 4.883	1379.9	–	–
307.25 K, m1 = 1.827	1167	–	–
307.45 K, m1 = 4.039	1327.9	–	–
307.6 K, m1 = 2.584	1228.1	–	–
307.65 K, m1 = 4.97	1385.7	–	–
307.7 K, m1 = 3.704	1307.2	–	–
307.8 K, m1 = 2.793	1243.4	–	–
307.9 K, m1 = 1.694	1154	–	–
307.95 K, m1 = 0.2491	1020.1	–	–
308.1 K, m1 = 4.403	1351	–	–
308.15 K, m1 = 0.0145	–	1520.8	0.7364
308.15 K, m1 = 0.0528	–	1522.6	0.745
308.15 K, m1 = 0.2491	–	1536.2	0.7877
308.15 K, m1 = 0.3405	–	1539.2	–
308.15 K, m1 = 0.5931	–	–	0.8757
308.15 K, m1 = 0.6173	–	1559.2	–
308.15 K, m1 = 0.896	–	1578.7	–
308.15 K, m1 = 0.9898	–	1585.6	1.005
308.15 K, m1 = 1.262	–	1602.4	1.11
308.15 K, m1 = 1.525	–	1621.7	–
308.15 K, m1 = 1.827	–	1644.8	1.342
308.15 K, m1 = 2.131	–	1666.7	1.498
308.15 K, m1 = 2.493	–	1688	–
308.15 K, m1 = 2.584	–	–	1.777
308.15 K, m1 = 2.793	–	1708.9	–
308.15 K, m1 = 3.096	–	–	2.146
308.15 K, m1 = 3.118	–	1728.7	–
308.15 K, m1 = 3.17	–	1735.9	–
308.15 K, m1 = 3.329	–	–	2.343
308.15 K, m1 = 3.501	–	1752.2	–
308.15 K, m1 = 3.704	–	–	2.692
308.15 K, m1 = 3.757	–	1770.5	–
308.15 K, m1 = 4.039	–	–	3.089
308.15 K, m1 = 4.051	–	1781.1	–
308.15 K, m1 = 4.285	–	1794.4	–
308.15 K, m1 = 4.403	–	1800.6	–
308.15 K, m1 = 4.728	–	–	4.262
308.15 K, m1 = 4.883	–	1826.2	–
308.15 K, m1 = 4.907	–	–	4.654
308.15 K, m1 = 5.134	–	1838.4	–
308.15 K, m1 = 5.282	–	–	5.506
308.35 K, m1 = 0.9898	1091.9	–	–
308.4 K, m1 = 1.525	1138.7	–	–
308.45 K, m1 = 1.262	1116	–	–
308.55 K, m1 = 0.3405	1028.5	–	–
308.7 K, m1 = 5.282	1404.1	–	–
308.75 K, m1 = 3.757	1309.6	–	–
308.85 K, m1 = 3.096	1265	–	–
308.85 K, m1 = 4.285	1343.6	–	–
308.95 K, m1 = 3.118	1265.8	–	–
309 K, m1 = 0.896	1082.4	–	–
309.05 K, m1 = 4.728	1371.9	–	–
309.25 K, m1 = 2.131	1191	–	–
309.3 K, m1 = 2.493	1218.8	–	–
309.35 K, m1 = 4.883	1378.4	–	–
309.4 K, m1 = 4.051	1326.7	–	–
309.5 K, m1 = 0.0145	994.82	–	–
309.5 K, m1 = 0.5931	1052.8	–	–
309.5 K, m1 = 0.6173	1055.5	–	–
309.6 K, m1 = 0.0528	999.02	–	–
309.65 K, m1 = 1.827	1165.8	–	–
309.75 K, m1 = 4.97	1384.3	–	–
309.9 K, m1 = 2.584	1226.7	–	–
309.95 K, m1 = 3.704	1305.7	–	–
310.1 K, m1 = 1.694	1152.8	–	–
310.15 K, m1 = 4.403	1349.7	–	–
310.7 K, m1 = 0.9898	1090.8	–	–
310.8 K, m1 = 0.2491	1019	–	–
310.9 K, m1 = 3.096	1263.8	–	–
310.95 K, m1 = 1.262	1114.7	–	–
311 K, m1 = 3.501	1291.7	–	–
311 K, m1 = 3.757	1308.1	–	–
311.05 K, m1 = 3.17	1273.3	–	–
311.2 K, m1 = 3.118	1264.5	–	–
311.25 K, m1 = 2.131	1189.9	–	–
311.25 K, m1 = 4.728	1370.6	–	–
311.35 K, m1 = 5.134	1394	–	–
311.45 K, m1 = 4.883	1377.1	–	–
311.55 K, m1 = 0.896	1081.3	–	–
311.75 K, m1 = 1.827	1164.7	–	–
311.9 K, m1 = 4.039	1325	–	–
311.95 K, m1 = 5.282	1402.5	–	–
312 K, m1 = 4.97	1382.9	–	–
312.1 K, m1 = 0.6173	1054.3	–	–
312.15 K, m1 = 1.694	1151.6	–	–
312.15 K, m1 = 2.793	1240.8	–	–
312.25 K, m1 = 0.0528	997.99	–	–
312.4 K, m1 = 4.403	1348.2	–	–
312.45 K, m1 = 0.0145	993.76	–	–
312.95 K, m1 = 1.525	1136.3	–	–
313.1 K, m1 = 1.262	1113.5	–	–
313.15 K, m1 = 0.0145	–	1532.2	0.6666
313.15 K, m1 = 0.0528	–	1531.9	0.6778
313.15 K, m1 = 0.2491	–	1544.5	0.7155
313.15 K, m1 = 0.3405	–	1546	–
313.15 K, m1 = 0.5931	–	–	0.7972
313.15 K, m1 = 0.6173	–	1566.4	–
313.15 K, m1 = 0.896	–	1584.7	–
313.15 K, m1 = 0.9898	–	1591.3	0.913
313.15 K, m1 = 1.262	–	1607.1	1.008
313.15 K, m1 = 1.525	–	1625.9	–
313.15 K, m1 = 1.827	–	1647.8	1.305
313.15 K, m1 = 2.131	–	1667.8	1.364
313.15 K, m1 = 2.493	–	1688.9	–
313.15 K, m1 = 2.584	–	–	1.616
313.15 K, m1 = 2.793	–	1709	–
313.15 K, m1 = 3.096	1262.3	–	1.947
313.15 K, m1 = 3.118	–	1728.1	–
313.15 K, m1 = 3.17	–	1734.7	–
313.15 K, m1 = 3.329	–	–	2.128
313.15 K, m1 = 3.501	–	1751.2	–
313.15 K, m1 = 3.704	–	–	2.435
313.15 K, m1 = 3.757	–	1767.8	–
313.15 K, m1 = 4.039	–	–	2.798
313.15 K, m1 = 4.051	–	1778.4	–
313.15 K, m1 = 4.285	–	1791.3	–
313.15 K, m1 = 4.403	–	1797.9	–
313.15 K, m1 = 4.728	–	–	3.817
313.15 K, m1 = 4.883	–	1823.1	–
313.15 K, m1 = 4.907	–	–	4.176
313.15 K, m1 = 5.134	–	1834.3	–
313.15 K, m1 = 5.282	–	–	4.924
313.25 K, m1 = 3.118	1263.3	–	–
313.25 K, m1 = 4.285	1340.7	–	–
313.45 K, m1 = 0.2491	1017.9	–	–
313.5 K, m1 = 2.493	1216.4	–	–
313.6 K, m1 = 2.131	1188.5	–	–
313.7 K, m1 = 0.3405	1026.4	–	–
313.7 K, m1 = 4.883	1375.5	–	–
313.8 K, m1 = 0.896	1080.2	–	–
313.8 K, m1 = 4.051	1324	–	–
314.1 K, m1 = 2.793	1239.5	–	–
314.15 K, m1 = 3.704	1303	–	–
314.15 K, m1 = 5.282	1401.1	–	–
314.25 K, m1 = 2.584	1224.2	–	–
314.45 K, m1 = 0.5931	1050.6	–	–
314.45 K, m1 = 0.6173	1053.3	–	–
314.5 K, m1 = 1.694	1150.4	–	–
314.5 K, m1 = 4.403	1346.8	–	–
